Experimental data published in ChEMBL document CHEMBL4152305, “Studies on 2-phenylquinoline Staphylococcus aureus NorA efflux pump inhibitors: New insights on the C-6 position” (Eur J Med Chem, 2018).
In brackets after ≈: the same amount, converted by molar mass. Activity calls are given as the source filed them. No cut-off for these calls is given here.

Columns and labels:
[1] = biological target: T1, Quinolone resistance protein NorA (Staphylococcus aureus) (UniProt P0A0J7); assay: Inhibition of Staphylococcus aureus SA-1199 norA assessed as potentiation of ciprofloxacin-induced antibacterial activity up to 100 ug/ml by checkerboard method
T1 sequence (whole entry): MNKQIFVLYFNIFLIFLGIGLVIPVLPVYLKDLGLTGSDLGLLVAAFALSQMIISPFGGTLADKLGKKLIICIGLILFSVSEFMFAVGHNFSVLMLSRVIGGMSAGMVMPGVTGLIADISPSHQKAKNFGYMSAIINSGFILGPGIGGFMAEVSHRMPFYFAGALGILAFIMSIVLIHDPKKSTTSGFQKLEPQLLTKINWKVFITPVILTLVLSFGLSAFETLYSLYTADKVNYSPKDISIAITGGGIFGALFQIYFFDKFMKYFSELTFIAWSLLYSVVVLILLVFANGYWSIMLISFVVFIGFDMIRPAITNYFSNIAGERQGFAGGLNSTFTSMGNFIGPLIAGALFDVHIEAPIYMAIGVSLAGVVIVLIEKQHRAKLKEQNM

[2] = biological target: T1, Quinolone resistance protein NorA (Staphylococcus aureus); assay: Inhibition of Staphylococcus aureus SA-1199B NorA assessed as potentiation of ciprofloxacin-induced antibacterial activity by measuring minimum potetntiation concentration causing 4 fold reduction in ciprofloxacin MIC by ciprofloxacin assay
Staphylococcus aureus [3] = assay: Growth inhibition of Staphylococcus aureus ATCC 25923 by microdilution method; format: organism-based; settings: in vivo
Staphylococcus aureus [4] = assay: Growth inhibition of Staphylococcus aureus SA-1199 expressing wild type norA by microdilution method; format: organism-based; settings: in vivo
Staphylococcus aureus [5] = assay: Growth inhibition of Staphylococcus aureus ATCC 25923 up to 100 ug/ml in presence of ciprofloxacin by checkerboard assay; format: organism-based; settings: in vivo
[6] = biological target: T1, Quinolone resistance protein NorA (Staphylococcus aureus); assay: Potency index, ratio of reserpine IC50 to test compound IC50 for Staphylococcus aureus SA-1199B NorA assessed as reduction in EtBr efflux
[7] = biological target: T2, Quinolone resistance protein NorA (Staphylococcus aureus, UniProt P0A0J7); assay: Inhibition of Staphylococcus aureus SA-1199B NorA assessed as reduction in EtBr efflux measured over 5 mins by fluorescence assay
T2 sequence (P0A0J7 whole entry): T1 sequence (whole entry)

[8] = biological target: T1, Quinolone resistance protein NorA (Staphylococcus aureus); assay: Inhibition of Staphylococcus aureus SA-1199B NorA assessed as reduction in EtBr efflux at 50 uM measured over 5 mins by fluorescence assay relative to control
Staphylococcus aureus [9] = assay: Growth inhibition of Staphylococcus aureus SA-1199B expressing wild type norA and co-expressing GrlA A116E mutant by microdilution method; format: organism-based; settings: in vivo
[10] = Selectivity index, ratio of CC50 for human HepG2 cells to compound effect for inhibition of Staphylococcus aureus SA-1199B NorA assessed as potentiation of ciprofloxacin-induced antibacterial activity by measuring minimum potetntiation concentration causing 4 fold reduction in ciprofloxacin MIC; format: toxicity; settings: read-out: Selectivity Index
[11] = Cytotoxicity against human HepG2 cells assessed as reduction in cell number after 24 hrs by bioluminescence assay; format: cell-based

Row | Structure (SMILES) | Activity [1] | Activity [2] | MIC (Staphylococcus aureus [3]) | MIC (Staphylococcus aureus [4]) | growth inhibition (GI) (Staphylococcus aureus [5]) | Ratio IC50 [6] | IC50 [7] | inhibition [8] | MIC (Staphylococcus aureus [9]) | selectivity ratio [10] | CC50 at 24 h [11]
1 | CCCOc1ccc(-c2cc(OCCN3CCCCC3)c3cc(O)ccc3n2)cc1 | inactive | 6.25 µg/mL | 25 µg/mL (≈ 61.5 µM) | 25 µg/mL (≈ 61.5 µM) | Non-Toxic | 2 | 3.3 µM | 87% | 61.5 µM | – | –
2 | COC(=O)[C@H]1[C@H]2C[C@@H]3c4[nH]c5cc(OC)ccc5c4CCN3C[C@H]2C[C@@H](OC(=O)c2cc(OC)c(OC)c(OC)c2)[C@@H]1OC [RESERPINE] | – | 1.56 µg/mL | > 100 µg/mL | > 100 µg/mL | – | – | 9.2 µM | – | > 164 µM | – | –
3 | CCCOc1ccc(-c2cc(OCCN3CCCCC3)c3cc(OCCCN(C)C)ccc3n2)cc1 | inactive | 6.25 µg/mL | 100 µg/mL (≈ 203 µM) | 100 µg/mL (≈ 203 µM) | Non-Toxic | – | 7.2 µM | 92.5% | 203.4 µM | – | –
4 | CCCOc1ccc(-c2cc(OCCN(CC)CC)c3ccccc3n2)cc1 | – | 6.25 µg/mL | – | – | – | – | 8.9 µM | – | – | 3.5 | 21.6 µg/mL (≈ 57 µM)
5 | CCCOc1ccc(-c2cc(OCCN(CC)CC)c3cc(OCc4ccccc4)ccc3n2)cc1 | inactive | 0.78 µg/mL | > 100 µg/mL | > 100 µg/mL | Non-Toxic | 2 | – | 91.1% | – | 15.7 | 12.3 µg/mL (≈ 25.3 µM)
6 | CCCOc1ccc(-c2cc(OCCN3CCCCC3)c3ccccc3n2)cc1 | – | 1.56 µg/mL | – | – | – | – | 7.3 µM | – | – | 24.9 | 38.9 µg/mL (≈ 99.6 µM)
7 | CCCOc1ccc(-c2cc(OCCN3CCCCC3)c3cc(OCCN4CCCCC4)ccc3n2)cc1 | inactive | – | Nd(Insoluble) | Nd(Insoluble) | Non-Toxic | – | – | – | – | – | –
8 | CCCOc1ccc(-c2cc(OCCN(CC)CC)c3cc(OCCN(CC)CC)ccc3n2)cc1 | inactive | – | 100 µg/mL (≈ 203 µM) | > 100 µg/mL | Non-Toxic | – | 10.6 µM | 81.4% | > 202.6 µM | – | –
9 | CCCOc1ccc(-c2cc(OCCN3CCCCC3)c3cc(OCCN(CC)CC)ccc3n2)cc1 | inactive | 25 µg/mL | 100 µg/mL (≈ 198 µM) | 100 µg/mL (≈ 198 µM) | Non-Toxic | 2 | 5.2 µM | 91.4% | 197.7 µM | – | –
10 | CCCOc1ccc(-c2cc(OCCN3CCCCC3)c3cc(OCCCN4CCOCC4)ccc3n2)cc1 | inactive | 6.25 µg/mL | 100 µg/mL (≈ 187 µM) | 50 µg/mL (≈ 93.7 µM) | Non-Toxic | 2 | 4.4 µM | 93.2% | 93.7 µM | – | –
11 | CCCOc1ccc(-c2cc(OCCN(CC)CC)c3cc(OCCCN4CCOCC4)ccc3n2)cc1 | inactive | 12.5 µg/mL | 100 µg/mL (≈ 192 µM) | > 100 µg/mL | Non-Toxic | 2 | 5 µM | 91.1% | > 191.7 µM | – | –
12 | CCCOc1ccc(-c2cc(OCCN(CC)CC)c3cc(OCCN4CCCCC4)ccc3n2)cc1 | inactive | – | Nd(Insoluble) | Nd(Insoluble) | Non-Toxic | – | – | – | – | – | –
13 | CCCOc1ccc(-c2cc(OCCN(CC)CC)c3cc(O)ccc3n2)cc1 | inactive | 1.56 µg/mL | 50 µg/mL (≈ 127 µM) | 50 µg/mL (≈ 127 µM) | Non-Toxic | 2 | 5.8 µM | 95% | 126.7 µM | – | –
14 | CCCOc1ccc(-c2cc(OCCN3CCCCC3)c3cc(OCc4ccccc4)ccc3n2)cc1 | inactive | 0.78 µg/mL | 100 µg/mL (≈ 201 µM) | 100 µg/mL (≈ 201 µM) | Non-Toxic | 2 | – | 76.3% | – | 43.4 | 33.8 µg/mL (≈ 68.1 µM)
15 | CCCOc1ccc(-c2cc(OCCN(CC)CC)c3cc(OCCCN(C)C)ccc3n2)cc1 | inactive | – | 100 µg/mL (≈ 208 µM) | > 100 µg/mL | Non-Toxic | – | 8.8 µM | 80.9% | > 208.5 µM | – | –
16 | O=C(O)c1cn(C2CC2)c2cc(N3CCNCC3)c(F)cc2c1=O [CIPROFLOXACIN] | – | – | 0.63 µg/mL (≈ 1.9 µM) | 0.63 µg/mL (≈ 1.9 µM) | – | – | – | – | 10 µg/mL | – | –
